Measurements reported in patent publication US10509036B2, “Methods of selecting and isolating cancer stem cells” (The Regents of the University of California, priority 2014, dated 2019).

Tested on: neuroblastoma cells (low NBDG and high NBDG)
Test: MTS assay (CellTiter 96 AQueous cell proliferation assay), low NBDG versus high NBDG neuroblastoma cells
Format: cell-based, human

| SMILES | resistance of low NBDG cells to the chemotherapy drug compared with high NBDG cells (MTS assay) |
| --- | --- |
| COc1cccc2c1C(=O)c1c(O)c3c(c(O)c1C2=O)C[C@@](O)(C(=O)CO)C[C@@H]3O[C@H]1C[C@H](N)[C@H](O)[C@H](C)O1 [doxorubicin] | more resistant |
| CC[C@]1(O)C[C@H]2CN(CCc3c([nH]c4ccccc34)[C@@](C(=O)OC)(c3cc4c(cc3OC)N(C=O)[C@H]3[C@@](O)(C(=O)OC)[C@H](OC(C)=O)[C@]5(CC)C=CCN6CC[C@]43[C@@H]65)C2)C1 [vincristine] | more resistant |
